Source: ChEMBL document CHEMBL1148396, “Structure-activity relationships of N-acyl pyrroloquinolone PDE-5 inhibitors” (J Med Chem, 2004)

Target: cGMP-specific 3',5'-cyclic phosphodiesterase (Homo sapiens, UniProt O76074)
Assay: Inhibitory activity against human Phosphodiesterase 5

| SMILES | Ki |
| --- | --- |
| O=C(Cc1ccccc1)N1Cc2c(nc3ccccc3c2O)C1c1ccc2c(c1)OCO2 (stereo not drawn) | 12.5 nM |
| O=S(=O)(Cc1ccccc1)N1Cc2c(nc3ccccc3c2O)C1c1ccc2c(c1)OCO2 (stereo not drawn) | 113 nM |
| O=C(OCc1ccncc1)N1Cc2c(nc3ccccc3c2O)[C@@H]1c1ccc2c(c1)OCO2 | 3.48 nM |
| O=S(=O)(/C=C/c1ccccc1)N1Cc2c(nc3ccccc3c2O)C1c1ccc2c(c1)OCO2 (stereo not drawn) | 118 nM |
| CN(Cc1ccccc1)C(=O)N1Cc2c(nc3ccccc3c2O)C1c1ccc2c(c1)OCO2 (stereo not drawn) | 11 nM |
| O=C(CCc1ccccc1)N1Cc2c(nc3ccccc3c2O)C1c1ccc2c(c1)OCO2 (stereo not drawn) | 4.53 nM |
| Oc1c2c(nc3ccccc13)C(c1ccc3c(c1)OCO3)N(C/C=C/c1ccccc1)C2 (stereo not drawn) | 23.3 nM |

The next molecules have a lower Ki than those just listed; values first:

| Ki | SMILES |
| --- | --- |
| 0.58 nM | O=C(OCc1ccccc1)N1Cc2c(nc3ccccc3c2O)C1c1ccc2c(c1)OCO2 (stereo not drawn) |
| 0.22 nM | O=C(/C=C/c1ccccc1)N1Cc2c(nc3ccccc3c2O)C1c1ccc2c(c1)OCO2 (stereo not drawn) |
| 0.29 nM | O=C(OCc1ccncc1)N1Cc2c(nc3ccccc3c2O)C1c1ccc2c(c1)OCO2 (stereo not drawn) |
| 1.06 nM | O=C(NCc1ccccc1)N1Cc2c(nc3ccccc3c2O)C1c1ccc2c(c1)OCO2 (stereo not drawn) |
| 0.35 nM | O=C(C#Cc1ccccc1)N1Cc2c(nc3ccccc3c2O)C1c1ccc2c(c1)OCO2 (stereo not drawn) |
| 0.23 nM | O=C(OCc1ccncc1)N1Cc2c(nc3ccccc3c2O)[C@H]1c1ccc2c(c1)OCO2 |
